Literature values as cited in publication PMC3229099 (Acta biochimica Polonica, 2011).

Key:
[1] = tested on: δ receptor versus μ receptor; conditions: ref Pawlak et al, 1997
opioid δ receptors = conditions: in vivo studies with the use of selective opioid receptor antagonists; ref Kotlińska et al, 2009

Substance: amide of cyclo[N^ε, N^δ -carbonyl-D-Lys^2, Dap^5 ]enkephalin
- GPI/MVD ratio [1]: 0.33
- receptor type mediating antinociception in vivo (opioid δ receptors): induced antinociception predominantly through opioid δ receptors
